Measured values reported in paper PMC9696794, “Synthesis and Antimicrobial Activity of Short Analogues of the Marine Antimicrobial Peptide Turgencin A: Effects of SAR Optimizations, Cys-Cys Cyclization and Lipopeptide Modifications” (International Journal of Molecular Sciences, 2022).
Where a SMILES comes first, the peptide text is derived from it. The star is where a group is joined. Lauroyl = CCCCCCCCCCCC(=O)*; Decanoyl = CCCCCCCCCC(=O)*; Octanoyl = CCCCCCCC(=O)*

Legend:
[1] = test system: B. subtilis (Bs, ATCC 23857); test: microbe, parasite or virus in culture; format: cell-based, Bacillus subtilis; settings: ATCC 23857, 24 h
Method: (§1) All cyclic and linear peptides were screened for antibacterial activity against four Gram-positive strains: B. subtilis (Bs, ATCC 23857), C. glutamicum (Cg, ATCC 13032), S. aureus (Sa, ATCC 9144) and S. epidermidis RP62A (Se, ATCC 35984), and two Gram-negative strains: E. coli (Ec, ATCC 25922) and P. aeruginosa (Pa, ATCC 27853). The activity was assessed using a broth microdilution assay according to a modified CLSI-based method. Briefly, overnight bacterial cultures were grown in Mueller–Hinton (MH) broth medium (Difco Laboratories, Detroit, MI, USA) for 2 h at room temperature. The optical density (OD600) was measured, and the bacterial suspensions were adjusted to 2.5–3 × 10^4 CFU/mL in MH medium. The bacterial suspension (50 µL) was distributed in 96-well plates (Nunc, Roskilde, Denmark) preloaded with two-fold dilution series (256 to 1 µg/mL) of peptide solutions (50 µL), giving a final well volume of 100 µL. The microplates were incubated in an EnVision 2103 microplate reader (PerkinElmer, Llantrisant, UK) at 35 °C, with OD595 recorded every hour for 24 h. MIC was defined as the lowest concentration of peptides showing an optical density less than 10% of the negative (growth) control, consisting of bacterial suspension and water. Polymyxin B sulfate (Sigma-Aldrich, St. Louis, MO, USA) and chlorhexidine acetate (CHX, Fresenius Kabi, Halden, Norway), both with concentrations ranging from 12.5 to 0.09 μg/mL, served as positive (growth inhibition) controls. All peptides were tested in triplicate.

[2] = test system: C. glutamicum (Cg, ATCC 13032); test: microbe, parasite or virus in culture; format: cell-based, Corynebacterium glutamicum; settings: ATCC 13032, 24 h
Method: as §1

[3] = test system: S. aureus (Sa, ATCC 9144); test: microbe, parasite or virus in culture; format: cell-based, Staphylococcus aureus; settings: ATCC 9144, 24 h
Method: as §1

[4] = test system: S. epidermidis RP62A (Se, ATCC 35984); test: microbe, parasite or virus in culture; format: cell-based, Staphylococcus epidermidis; settings: ATCC 35984, 24 h
Method: as §1

E. coli (Ec, ATCC 25922) = test: microbe, parasite or virus in culture; format: cell-based, Escherichia coli; settings: ATCC 25922, 24 h
Method: as §1

[5] = test system: P. aeruginosa (Pa, ATCC 27853); test: microbe, parasite or virus in culture; format: cell-based, Pseudomonas aeruginosa; settings: ATCC 27853, 24 h
Method: as §1

all bacterial strains = test: Antibacterial MIC assay, all bacterial strains together (range or geometric mean); format: cell-based; settings: for GM (geometric mean of the MIC values against all bacterial strains): Table 1, six bacterial strains; for GM of MIC Tot. bact.: Table S3, all bacterial test strains, MIC >256 set to 256
Method: The selectivity index (SI) of the peptides towards bacteria over eukaryotic cells was calculated using the geometric mean (GM) of the MIC values against all bacterial test strains, according to the method by Orlov et al.. The SI for each peptide was determined as the ratio of the RBC-EC50 value by the corresponding GM value. Larger SI values indicate greater selectivity for microbial cells. […] In general, the SI was higher against the Gram-positive bacteral strains than the Gram-negative strains. (Table S3). Overall, peptides displaying EC50 < 100 µg/mL were considered too haemolytic to be of interest for further exploration.
as §1

A. pullulans (Ap) = test: microbe, parasite or virus in culture; format: cell-based, Aurobasidium pollulans; settings: 48 h
Method: (§2) The synthesized peptides were screened for antifungal activity against the molds A. pullulans (Ap) and Rhodotorula sp. (Rh) (both obtained from Professor Arne Tronsmo, The Norwegian University of Life Sciences, Ås, Norway) and the yeast C. albicans (Ca, ATCC 10231) as previously described. In short, fungal spores were grown in potato dextrose broth media (Difco) containing 2% D(+)-glucose (Merck, Darmstadt, Germany) at 25–30 °C while shaking at 200 rpm overnight. The cultures were diluted with a dextrose media containing glucose to a concentration of approx. 4 × 10^5 spores/mL. Aliquots of the cultures (50 µL) were transferred to 96 well microtiter plates preloaded with the synthetic peptides (50 µL) in two-fold serial dilutions (256 to 1 µg/mL). Polymyxin B and CHX (both with concentrations ranging from 12.5 to 0.09 μg/mL) served as positive antibiotic controls. The microtiter plates containing the fungal spores and the test peptides were incubated at room temperature for 48 h and OD600 was recorded using a Synergy H1 Hybrid microplate reader system (BioTek, Winooski, VT, USA). MIC was defined as the lowest peptide concentration showing an optical density less than 10% of the negative (growth) control. All experiments were performed in triplicate.

[6] = test system: C. albicans (Ca, ATCC 10231); test: microbe, parasite or virus in culture; format: cell-based, Candida albicans; settings: ATCC 10231, 48 h
Method: as §2

Rhodotorula sp. (Rh) = test: microbe, parasite or virus in culture; format: cell-based; settings: 48 h
Method: as §2

[7] = test system: human red blood cells (RBC); test: Haemolytic activity assay; format: cell-based; settings: for Selectivity index (SI) G- / Selectivity index (SI) G+ / Selectivity index (SI) Fungi: Table S3, highest tested concentration used where EC50 above it; for Selectivity index (SI) G-: EC50/GM of Gram-negative strains; for Selectivity index (SI) G+: EC50/GM of Gram-positive strains; for Selectivity index (SI) Fungi: EC50/GM of fungi; for SI (selectivity index = EC50/GM): haemolytic EC50 over GM of MIC against all bacterial strains, Table 1; for RBC Tox. (EC50), haemolytic activity: human RBC, 1 h, 37 °C, concentration giving 50% haemolysis
Method: The synthetized lipopeptides were screened for haemolytic activity against human red blood cells (RBC), in concentrations ranging from 500 to 3.9 μM, following a previously described protocol. In brief, haemolysis was determined using a heparinizied (10 IU/mL) fraction of freshly drawn human blood. A second fraction of blood, which was collected in test tubes containing ethylenediaminetetraacetic acid (EDTA, Vacutest, KIMA, Arzergrande, Italy), was used for determination of the hematocrit (hct). Plasma was removed from heparinized blood by washing three times with prewarmed phosphate-buffered saline (PBS) before being adjusted to a hematocrit of 4%. Peptides dissolved in dimethyl sulfoxide (DMSO) were further diluted with PBS to a final DMSO content of ≤1%. Triton X-100 (Sigma-Aldrich, St. Louis, MO, USA), used at a final concentration of 0.1%, served as a positive control for 100% haemolysis, whereas 1% DMSO in PBS buffer served as a negative control where no toxicity was detected. Duplicates of test solutions and erythrocytes, with 1% hct final concentration, were prepared in a 96-well polypropylene V-bottom plate (Nunc, Fischer scientific, Oslo, Norway). They were incubated under agitation at 37 °C and 800 rpm for 1 h. After centrifugation (5 min, 3000× g), 100 µL from each well were transferred to a flat-bottomed 96-well plate and absorbance was measured at 545 nm with a microplate reader (SpectraMax 190, Molecular Devices, San Jose, CA, USA). After subtracting PBS background, the percentage of haemolysis was calculated as the ratio of the absorbance in the peptide-treated and surfactant-treated samples. Three independent experiments were performed, and EC50 (the concentration giving 50% haemolysis) values are presented as averages.

[8] = test system: Gram-positive bacterial strains; settings: for GM of MIC G+: Table S3, MIC >256 set to 256
Method: as §1

[9] = test system: Gram-negative bacterial strains (E. coli and P. aeruginosa); test: Antibacterial MIC assay, Gram-negative strains together (range or geometric mean); format: cell-based; settings: Table S3; MIC >256 set to 256
Method: as §1

[10] = test system: fungi (A. pullulans, C. albicans, Rhodotorula sp.); test: Antifungal MIC assay, all fungi together (range or geometric mean); format: cell-based; settings: Table S3; MIC >128 set to 128
Method: as §2

SMILES	Antimicrobial Activity (MIC) Gram + Bs [1]	Antimicrobial Activity (MIC) Gram + Cg [2]	Antimicrobial Activity (MIC) Gram + Sa [3]	Antimicrobial Activity (MIC) Gram + Se [4]	Antimicrobial Activity (MIC) Gram − Ec (E. coli (Ec, ATCC 25922))	Antimicrobial Activity (MIC) Gram − Pa [5]	GM (geometric mean of the MIC values against all bacterial strains) (all bacterial strains)	GM of MIC Tot. bact. (all bacterial strains)	Antimicrobial Activity (MIC) Fungi Ap (A. pullulans (Ap))	Antimicrobial Activity (MIC) Fungi Ca [6]	Antimicrobial Activity (MIC) Fungi Rh (Rhodotorula sp. (Rh))	Selectivity index (SI) G- [7]	Selectivity index (SI) G+ [7]	Selectivity index (SI) Fungi [7]	SI (selectivity index = EC50/GM) [7]	RBC Tox. (EC50), haemolytic activity [7]	GM of MIC G+ [8]	GM of MIC G- [9]	GM of MIC Fungi [10]	MIC against the Gram-positive bacterial strains ([8]; 2 h)
CCCCCCCC(=O)N[C@@H](CS)C(=O)NCC(=O)N[C@@H](CCCNC(=N)N)C(=O)N[C@@H](CCCNC(=N)N)C(=O)N[C@@H](Cc1c[nH]c2ccccc12)C(=O)NCC(=O)N[C@@H](Cc1c[nH]c2ccccc12)C(=O)N[C@@H](Cc1c[nH]c2ccccc12)C(=O)N[C@@H](CCCNC(=N)N)C(=O)N[C@@H](CS)C(=O)N[C@@H](CCCNC(=N)N)C(=O)N[C@@H](CC(C)C)C(N)=O [Peptide C8-Turg-6, C8- CGRRWGWWRC RL-NH2] (Octanoyl-CGRRWGWWRCRL-NH2)	4 mg/L	4 mg/L	16 mg/L	8 mg/L	8 mg/L	32 mg/L	9 mg/L	9 mg/L	128 mg/L	64 mg/L	128 mg/L	3	8	1	6	54 mg/L	7 mg/L	16 mg/L	102 mg/L	–
CCCCCCCCCC(=O)N[C@@H](CS)C(=O)NCC(=O)N[C@@H](CCCCN)C(=O)N[C@@H](CCCCN)C(=O)N1CCC[C@H]1C(=O)NCC(=O)NCC(=O)N[C@@H](Cc1c[nH]c2ccccc12)C(=O)N[C@@H](CCCCN)C(=O)N[C@@H](CS)C(=O)N[C@@H](CCCCN)C(=O)N[C@@H](CC(C)C)C(N)=O [Peptide C10-Turg-1, C10- CGKKPGGWKC KL-NH2] (Decanoyl-CGKKPGGWKCKL-NH2)	4 mg/L	4 mg/L	16 mg/L	8 mg/L	16 mg/L	32 mg/L	10 mg/L	10 mg/L	32 mg/L	64 mg/L	8 mg/L	> 42	> 142	> 38	>95	>957 mg/L	7 mg/L	23 mg/L	25 mg/L	–
CCCCCCCCCC(=O)N[C@@H](CS)C(=O)NCC(=O)N[C@@H](CCCCN)C(=O)N[C@@H](CCCCN)C(=O)N[C@@H](Cc1c[nH]c2ccccc12)C(=O)N[C@@H](Cc1c[nH]c2ccccc12)C(=O)NCC(=O)N[C@@H](Cc1c[nH]c2ccccc12)C(=O)N[C@@H](CCCCN)C(=O)N[C@@H](CS)C(=O)N[C@@H](CCCCN)C(=O)N[C@@H](CC(C)C)C(N)=O [Peptide C10-Turg-2, C10- CGKKWWGWKC KL-NH2] (Decanoyl-CGKKWWGWKCKL-NH2)	8 mg/L	4 mg/L	8 mg/L	8 mg/L	8 mg/L	16 mg/L	8 mg/L	8 mg/L	32 mg/L	64 mg/L	32 mg/L	6	10	2	8	–	7 mg/L	11 mg/L	40 mg/L	4 to 8 mg/L
CCCCCCCCCCCC(=O)N[C@@H](CS)C(=O)NCC(=O)N[C@@H](CCCCN)C(=O)N[C@@H](CCCCN)C(=O)N1CCC[C@H]1C(=O)NCC(=O)NCC(=O)N[C@@H](Cc1c[nH]c2ccccc12)C(=O)N[C@@H](CCCCN)C(=O)N[C@@H](CS)C(=O)N[C@@H](CCCCN)C(=O)N[C@@H](CC(C)C)C(N)=O [Peptide C12-Turg-1, C12- CGKKPGGWKC KL-NH2] (Lauroyl-CGKKPGGWKCKL-NH2)	4 mg/L	4 mg/L	8 mg/L	4 mg/L	8 mg/L	16 mg/L	6 mg/L	6 mg/L	32 mg/L	64 mg/L	8 mg/L	> 86	> 204	> 38	–	>971 mg/L	5 mg/L	11 mg/L	25 mg/L	–
